Entries after “also recorded” stand apart in the source; their conditions may differ.
Columns and labels:
HSV-2 (333) dThd kinase = biological target: T1, HSV-2 (333) dThd kinase (Human herpesvirus 2, UniProt P04407); assay: dThd kinase assay in vitro; assay type: biochemical, HSV-2 (strain 333)
T1 construct: kinases were extracted from dThd kinase-deficient HeLa BU cells infected with HSV-1 (strain KOS) and HSV-2(strain 333); endogenous in cells; host or cells: HeLa BU cells (dThd kinase deficient) infected with HSV-2 (strain 333)
T1 sequence (P04407 whole entry): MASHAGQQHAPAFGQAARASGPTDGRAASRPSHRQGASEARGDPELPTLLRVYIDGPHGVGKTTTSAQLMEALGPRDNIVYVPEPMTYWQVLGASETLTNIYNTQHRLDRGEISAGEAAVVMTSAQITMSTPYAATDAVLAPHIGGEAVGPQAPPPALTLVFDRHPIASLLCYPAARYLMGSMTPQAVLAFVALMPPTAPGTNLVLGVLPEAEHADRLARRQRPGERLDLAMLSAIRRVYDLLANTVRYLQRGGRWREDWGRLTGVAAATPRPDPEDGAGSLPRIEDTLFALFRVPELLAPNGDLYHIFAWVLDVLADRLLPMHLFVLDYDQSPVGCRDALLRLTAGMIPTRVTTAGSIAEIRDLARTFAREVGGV
Description: (§1) Enzyme purification, enzyme assays, IC50 and Ki determinations. The cellular cytosolic dThd kinase used to determine the Ki values was isolated from KB6B cells. The HSV-1 and HSV-2dThd kinases were extracted from dThd kinase-deficient HeLa BU cells infected with HSV-1 (strain KOS) and HSV-2(strain 333), respectively. All of the dThd kinases were purified using affinity column chromatography procedures described by Lee, L. S. and Cheng, Y.-C. (J. Biol. Chem. 251:2600-2604 (1976)). The dThd kinase assay used was the same as that described by Cheng, Y.-C. & Ostrander, M. (J. Biol. Chem. 251:2605-2610 (1976)). Incubations were conducted at 37° C. for 60 min and the Ki and 50% […] concentration (IC50) values were determined as described by Cheng, Y.-C. and Prusoff, W. H. (Biochem. Pharmacol. 22:3099-3108 (1976)).

host dTMP kinase = biological target: T2, host dTMP kinase (Homo sapiens, UniProt P23919); assay: dTMP (thymidylate) kinase assay, crude extracts of HSV-2 (333)-infected HeLa BU cells; assay type: biochemical; settings: 25 μM dTMP substrate, read-out: IC50 of dTMP kinase (reflects host dTMP kinase activity)
T2 construct: endogenous in cells; host or cells: HSV-2 (333)-infected HeLa BU cells, extract
T2 sequence (P23919 whole entry): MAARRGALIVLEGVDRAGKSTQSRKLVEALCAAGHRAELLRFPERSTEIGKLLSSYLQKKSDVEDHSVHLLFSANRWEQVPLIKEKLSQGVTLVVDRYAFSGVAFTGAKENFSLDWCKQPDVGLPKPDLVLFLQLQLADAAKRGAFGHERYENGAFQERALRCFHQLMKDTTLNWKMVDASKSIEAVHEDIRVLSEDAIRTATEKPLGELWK
Method: The thymidylate kinase and synthase assays were performed according to known procedures (see, Cheng, Y.-C. & Prusoff, W. H. (1974) Anal. Biochem. 60:545-550; Roberts, D. (1966) Biochemistry 5:3546-3548; Dolnick, B. J. & Cheng, Y. C. (1977) J. Biol. Chem. 252:7697-7703). dThd phosphorylase activity was determined by monitoring conversion of [^14 C]dThd to [14 C] thymine using high performance liquid chromatography (HPLC). Briefly, after a 30 min incubation of enzyme extract with radiolabeled dThd at 37° C., the reaction was stopped by addition of 25% trichloroacetic acid. After neutralization and centrifugation, the supernatants were loaded on to an Alltech Lichrosorb RP-18 column, and the column was eluted at a rate of 1 ml/min with 5 mM KH2 PO4 (pH 3.5)--10% methanol. Fractions of 1 ml were collected and radioactivity associated with dThd and thymine (as previously determined by retention times of authentic markers measured by their absorbance at 265 nm) was measured by scintillation counting. For evaluation of whether 5'-Et-dThd could serve substrate for dThd phosphorylase, reactions were carried out as described as above, except that 5'-Et-dThd was used instead of [^14 C]dThd; metabolites were then analyzed by HPLC as described above.

[1] = test system: dTTP pools of HSV-1 (strain MDK)-infected HeLa BU cells; assay: dNTP pool assay; assay type: cell-based; settings: 100 μM
Description: (§2) dNTP pool assay. dNTP pool measurements were done as described by Williams, M. W., Chang, C. H. and Cheng, Y.-C. (J. Biomed. Biophys. Meth. 1:153-1 62 (1979)). 5'-Et-dThd alone had no effect on the dNTP pool assay.

[2] = test system: dTTP pool of HSV-1-infected HeLa S3 cells; assay: dNTP pool assay; assay type: cell-based; settings: 100 μM, 12 h post infection
Description: as §2

[3] = test system: dNTP pools of HSV-1-infected HeLa BU cells; assay: dNTP pool assay; assay type: cell-based
Description: as §2

HSV-1 SC16 dThd kinase = HSV-1 SC16 dThd kinase (Human herpesvirus 1, UniProt P06479); assay: dThd kinase assay in vitro, enzyme extracts; assay type: biochemical, HSV-1 (strain SC16); settings: enzyme extracts of infected HeLa BU cells, 100 μM dThd
HSV-1 SC16 dThd kinase, sequence (P06479 whole entry, looked up): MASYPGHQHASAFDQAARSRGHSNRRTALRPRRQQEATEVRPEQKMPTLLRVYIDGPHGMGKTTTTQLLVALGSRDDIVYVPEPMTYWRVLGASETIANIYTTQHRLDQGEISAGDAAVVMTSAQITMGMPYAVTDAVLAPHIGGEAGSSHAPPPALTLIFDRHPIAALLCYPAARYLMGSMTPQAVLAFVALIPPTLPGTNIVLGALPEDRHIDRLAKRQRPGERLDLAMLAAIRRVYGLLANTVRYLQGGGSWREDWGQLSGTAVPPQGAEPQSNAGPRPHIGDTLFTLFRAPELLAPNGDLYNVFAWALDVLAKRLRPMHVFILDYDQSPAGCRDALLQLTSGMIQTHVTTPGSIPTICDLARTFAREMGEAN
Method: Virus stocks. The viruses used were HSV-1 (strains KOS, SC16, B3 and Tr7) and HSV-2(strain 333). dThd kinase mutants of HSV (SC16), B3 and Tr7, were isolated in the presence of (E)-5-(2-bromovinyl)-2'-deoxyuridine (BVDU) at 10 μg/ml and ACV at 1 μg/ml, respectively (Darby, G., Field, H.J. & Salisbury, S. A. (1982) Nature (London) 289:81-83; Field, H.J & Neden J. (1982) Antiviral Res. 2:243254).
as §1

[4] = biological target: T3, HSV-2 (333) dThd kinase in infected HeLa BU cells (Human herpesvirus 2, UniProt P04407); assay: Intracellular dThd kinase activity ([14C]dThd phosphorylation); assay type: cell-based, HSV-2 (strain 333)
T3 construct: kinases were extracted from dThd kinase-deficient HeLa BU cells infected with HSV-1 (strain KOS) and HSV-2(strain 333); endogenous in cells; host or cells: HeLa BU cells (dThd kinase deficient) infected with HSV-2 (strain 333)
T3 sequence (P04407 whole entry): as the sequence (P04407 whole entry) above
Method: (§3) Intracellular dThd kinase activity. HeLa S3 or HeLa BU cells (1.5×10^6 /ml) were mock infected or infected with HSV-1 or HSV-2at 3 PFU/cell and incubated at 37° C. for a 1 h adsorption period. The medium was then removed, and the cells were washed with growth medium and resuspended at a cell density of 5×10^5 cells/ml in RPMI 1640 medium supplemented with kanamycin (100 μg/ml) and 5% dialyzed fetal bovine serum. At 9 h post-HSV infection, [14C]dThd (0.16 μCi/ml; 1 μM dThd) and different amounts of 5'-Et-dThd were added to the medium depending on experimental conditions. At the end of the labeling period (1 h), the cells were pelleted by centrifugation, washed with phosphate-buffered-saline (PBS) and resuspended in a small volume of PBS. Aliquots were then pipetted directly onto DE81 discs which were immediately washed in 100% EtOH. The DE81 discs were washed two additional times in 100% EtOH, and then radioactivity associated with the discs was measured by scintillation counting in 5 ml of aqueous counting fluid. In this manner, total intracellular dThd kinase activity was determined from the sum of radioactive acid soluble dThd nucleotides plus the acid insoluble dTMP associated with DNA, both precipitated directly on the DE81 discs.

[5] = test system: HSV-2-infected HeLa S3 cells; assay: Intracellular dThd phosphorylation; assay type: cell-based; settings: 25 μM, 9 h post infection, 1 h labeling
Method: as §3

[6] = test system: mock infected HeLa S3 cells; assay: Intracellular dThd phosphorylation; assay type: cell-based; settings: increasing amounts of 5'-Et-dThd
Method: as §3

[7] = test system: HSV-1-infected HeLa S3 cells; assay: Intracellular dThd phosphorylation; assay type: cell-based; settings: 25 μM, 9 h post infection, 1 h labeling
Method: as §3

5'-ethynylthymidine [5'-Et-dThd]
inhibition of dThd kinase activity (HSV-2 (333) dThd kinase; 10 μM 5'-Et-dThd, purified enzyme, 100 μM [14C]dThd): 25% | Ki (HSV-2 (333) dThd kinase; HSV-2 333, affinity column-purified dThd kinase, ± standard deviation): 0.38 µM | IC50 (HSV-2 (333) dThd kinase; HSV-2 333, enzyme extracts of infected HeLa BU cells, 100 μM dThd): 46 µM | type of inhibition (kinetic studies) (HSV-2 (333) dThd kinase; with respect to dThd): competitive inhibitor | IC50 (host dTMP kinase): 60 µM | inhibition of dTTP pools [1]: 45% | reduction of dTTP pool vs untreated infected control [2]: 80% | effect on dTTP pool of HSV-infected mammalian cells ([3]; 100 μM): significantly decreases | reduction of dTTP pool vs untreated infected control ([3]; 100 μM, HSV-1-infected HeLa BU cells, 12 h post infection): 95% | effect on dATP, dCTP and dGTP pools ([3]; 9 h HSV-1 (KOS)-infected HeLa BU cells): not significantly affected; also recorded: no significant effect | IC50 (HSV-1 SC16 dThd kinase): 5 µM | dThd phosphorylating activity, % of untreated control ([4]; 25 μM, HSV-2-infected HeLa BU, 9 h post infection, 1 h labeling): 80% | inhibition of dThd kinase-mediated [14C]dThd phosphorylation ([4]; 100 μM, HSV-2-infected HeLa BU cells, 9 h post infection): 50% | IC50 ([4]; HSV-2 333, intracellular [14C]dThd phosphorylation, HeLa BU cells): 100 µM | dThd phosphorylating activity, % of untreated control [5]: 88% | accumulation of intracellular phosphorylated [14C]-dThd metabolites [6]: increased slightly | dThd phosphorylating activity, % of untreated control [7]: 25%
